Data as given in PMC4216499 (The Indian Journal of Medical Research, 2014).
“And” between values parts separate entries of the source, which are not always exact repeats. Equal values may be shown once.

Legend:
influenza A viruses = conditions: cited from earlier work
[1] = test system: pandemic (H1N1) 2009 viruses; conditions: cited from earlier work
pandemic (H1N1) viruses = test system: pandemic (H1N1) viruses; parameters: species or system pandemic influenza A (H1N1) virus
Type B influenza = test system: Type B influenza; parameters: species or system influenza B virus
A/H3N2 viruses = test system: A/H3N2 viruses; parameters: species or system influenza A/H3N2 virus
A/H1N1 viruses = test system: A/H1N1 viruses; parameters: species or system influenza A/H1N1 virus

Compound	Amantadine resistance (influenza A viruses)	oseltamivir-resistant viruses detected [1]	oseltamivir susceptibility by H274Y allelic discrimination (pandemic (H1N1) viruses)	oseltamivir susceptibility by NA gene markers (Type B influenza)	oseltamivir-resistance conferring mutations (A/H3N2 viruses)	Total resistant samples/Total samples (A/H1N1 viruses)	oseltamivir resistant with H274Y mutation (A/H1N1 viruses)
NC12CC3CC(CC(C3)C1)C2 [amantadine]	33-100%						
CCOC(=O)C1=C[C@@H](OC(CC)CC)[C@H](NC(C)=O)[C@@H](N)C1 [oseltamivir]		less than 1 per cent	all were sensitive	all type B isolates were sensitive	none of the isolates had any of the reported oseltamivir-resistance conferring mutations	35/38 and 15/23	82%
